We go through two compounds from patent publication US9387215B2, “Animal feed including cationic cholesterol additive and related methods” (priority 2013, dated 2016).

Format in all cases: in vivo
Assay [1] can be described thus: Confined animal feed operation study of chickens, additive in drinking water. Conditions: for Harvest weight / Weight gain: day one through day 35, CSA-44 5 ppm in drinking water, control tetracycline in feed; for Death loss: in vivo. The method, then:
A study of 50,000 birds performed in 2 groups of 25,000 birds was performed on a confined animal feed operation. The following cationic cholesterol additive (CSA-44) was added to animal drinking water:
The additive was prepared in drinking water at a concentration of 5 ppm. The dry feed administered to the chickens contained no antibiotic.
A control group of birds was delivered tetracycline in animal feed according to conventional practices.
The cationic cholesterol additive was given from day one through day 35.

For assay [2], the system named is Lactobacillus bacteria (LAB). Kind of assay: Lactobacillus bacteria (LAB) concentration in ileum, cecum and colon of mice after oral CSA-44. The settings on record: 10 mg/kg oral gastric lavage, 12 and 24 hours post Tx. The method, then:
To evaluate the effectiveness of cationic cholesterol compounds on GI microbiota, the following compound (CSA-44) was administered oraly by gastric lavage to mice at 10 mg/kg:
To determine the health improvements caused by the cationic cholesterol compound, the concentration (cfu/mL) of Lactobacillus bacteria (LAB) (beneficial flora) in the ileum, cecum, and colon was determined at 12 and 24 hours. The LAB concentration was compared to control mice.
As illustrated in the graphs of FIGS. 1 and 2, the cationic cholesterol compound appears to have a significant “sparing” effect on beneficial Lactobacillus bacteria (LAB) flora (log values on y-axis) in the ileum, cecum and colon (on x-axis) when compared to control mice at 12 and 24 hours after being given CSA-44 (“post Tx”), resulting in almost a 2 log increase in LAB concentration in all 3 segments of the intestine when compared to control mice. This increase in LAB concentration flora is a surprising and unexpected result.

Assay [3] deals with C. difficile. Description: LD50 C. difficile challenge model, survival of mice. The settings on record: administered 24 hours after C. difficile challenge; Day 0, Day 3, Day 10; versus control mice; FIG. 5. The protocol: The mice of Example 2 were also evaluated for decreased morbidity in an LD50 C. difficile challenge model. The cationic cholesterol compound was administered 24 hours after C. difficile challenge (“Tx 24 Hr.”). FIG. 4 illustrates the steps used in performing the study.

For assay [4], the system named is C. difficile ATCC 9689. Description: Weight gain of mice after C. difficile challenge. The settings on record: oral 10 mg/kg once, 24 and 48 hours after 1×10^5 cfu or 72 hours after 1×10^6 cfu challenge; FIG. 3. The protocol: In another study with the mice of Example 2, a cationic cholesterol additive was administered to determine changes in weight gain. The compound was administered orally @10/mg/kg once, 24 and 48 hours after C. difficile ATCC 9689 challenge at 1×10^5 cfu (or CFU) or 72 hours after challenge with 1×10^6 cfu (or CFU) (Day 0). The results are illustrated in the graph of FIG. 3.

As to `CCCCCCCCOC(=O)CC[C@@H](C)[C@H]1CC[C@H]2[C@@H]3[C@H](OC(=O)CCN)C[C@@H]4C[C@H](OC(=O)CCN)CC[C@]4(C)[C@H]3C[C@H](OC(=O)CCN)[C@]12C` [CSA-44], the “Feed conversion efficiency improved” value in assay [1] (chickens, 5 ppm in drinking water, versus tetracycline control) is 8%. In assay [1] (chickens), this compound gave a Harvest weight of 4.22 lbs and a Weight gain of 0.120 lbs per day. In addition, the Death loss in assay [1] worked out at 535 birds. Also, the “Increase in LAB concentration compared to control mice” value in assay [2] is approximately 2 log. Besides, the Survival rate result in assay [3] is listed as “improved survival rate”. Further, in assay [4], the “Weight gain after challenge with C. difficile” value is “trend for the treated mice to have greater weight gain”.

Consider `CN(C)[C@@H]1C(O)=C(C(N)=O)C(=O)[C@@]2(O)C(O)=C3C(=O)c4c(O)cccc4[C@@](C)(O)[C@H]3C[C@@H]12` [tetracycline, reference compound], for which, in assay [1] (chickens), the Harvest weight amounted to 3.85 lbs and the Weight gain was 0.112 lbs per day. The Death loss in assay [1] is listed as 1400-1500 birds.
